In PubChem BioAssay (NCI):
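Exposure lasted 48 hours, with cells grown in 96-well plates and compounds tested at five concentrations. TGI: concentration producing complete growth inhibition.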

How the values were obtained:
Assay in all cases: NCI tumour cell line growth inhibition, 48 h
CCRF-CEM leukemia = test system: CCRF-CEM leukemia
UO-31 renal = test system: UO-31 renal
SK-OV-3 ovarian = test system: SK-OV-3 ovarian
HCT-15 colon = test system: HCT-15 colon
SF-268 CNS = test system: SF-268 CNS
OVCAR-8 ovarian = test system: OVCAR-8 ovarian
RPMI-8226 leukemia = test system: RPMI-8226 leukemia
MDA-MB-435 = test system: MDA-MB-435
NCI-H23 lung = test system: NCI-H23 lung
EKVX NSCLC = test system: EKVX NSCLC
COLO 205 colon = test system: COLO 205 colon
SF-295 CNS = test system: SF-295 CNS
K-562 leukemia = test system: K-562 leukemia
UACC-257 melanoma = test system: UACC-257 melanoma
HCC-2998 colon = test system: HCC-2998 colon
A498 renal = test system: A498 renal
ACHN renal = test system: ACHN renal
IGROV1 ovarian = test system: IGROV1 ovarian
786-0 renal = test system: 786-0 renal
MCF7 breast = test system: MCF7 breast
KM12 colon = test system: KM12 colon
T-47D breast = test system: T-47D breast
SNB-19 CNS = test system: SNB-19 CNS
A549 NSCLC = test system: A549 NSCLC
NCI-H460 lung = test system: NCI-H460 lung
MDA-MB-231 breast = test system: MDA-MB-231 breast
DU-145 prostate = test system: DU-145 prostate
LOX IMVI melanoma = test system: LOX IMVI melanoma
UACC-62 melanoma = test system: UACC-62 melanoma
SNB-75 CNS = test system: SNB-75 CNS
SN12C renal = test system: SN12C renal
HT29 colon = test system: HT29 colon
MALME-3M melanoma = test system: MALME-3M melanoma
PC-3 prostate = test system: PC-3 prostate
M14 melanoma = test system: M14 melanoma
SK-MEL-28 melanoma = test system: SK-MEL-28 melanoma
SW-620 colon = test system: SW-620 colon
SF-539 CNS = test system: SF-539 CNS
BT-549 breast = test system: BT-549 breast
HL-60(TB) leukemia = test system: HL-60(TB) leukemia
NCI-H522 lung = test system: NCI-H522 lung
HCT-116 colon = test system: HCT-116 colon
NCI-H226 lung = test system: NCI-H226 lung
MOLT-4 leukemia = test system: MOLT-4 leukemia
HOP-62 NSCLC = test system: HOP-62 NSCLC
TK-10 renal = test system: TK-10 renal
SK-MEL-5 melanoma = test system: SK-MEL-5 melanoma
SR leukemia = test system: SR leukemia
HS 578T breast = test system: HS 578T breast
CAKI-1 renal = test system: CAKI-1 renal
MDA-N = test system: MDA-N

Measured: TGI

O=S(=O)(NC1CCCCC1)c1ccc2c(c1)OCCOCCOCCOCCO2
> 100 µM: CCRF-CEM leukemia | UO-31 renal | SK-OV-3 ovarian | HCT-15 colon | SF-268 CNS | OVCAR-8 ovarian | RPMI-8226 leukemia | MDA-MB-435 | NCI-H23 lung | EKVX NSCLC | COLO 205 colon | SF-295 CNS | K-562 leukemia | UACC-257 melanoma | HCC-2998 colon | A498 renal | ACHN renal | IGROV1 ovarian | 786-0 renal | MCF7 breast | KM12 colon | T-47D breast | SNB-19 CNS | A549 NSCLC | NCI-H460 lung | MDA-MB-231 breast | DU-145 prostate | LOX IMVI melanoma | UACC-62 melanoma | SNB-75 CNS | SN12C renal | HT29 colon | MALME-3M melanoma | PC-3 prostate | M14 melanoma | SK-MEL-28 melanoma | SW-620 colon | SF-539 CNS | BT-549 breast | HL-60(TB) leukemia | NCI-H522 lung | HCT-116 colon | NCI-H226 lung | MOLT-4 leukemia | HOP-62 NSCLC | TK-10 renal | SK-MEL-5 melanoma | SR leukemia | HS 578T breast | CAKI-1 renal | MDA-N
